Results on two compounds are retold here after US12496269B2, “Steamed Glycyrrhiza sp. extract with increased glycyrrhetinic acid contents and preparation method thereof” (LG Household & Health Care Ltd., priority 2021, dated 2025).

One experiment concerns MNT-1 melanoma cells. The experiment can be described thus: Whitening effect by inhibition of melanin production. To be noted: Homo sapiens, positive control at 200 μg/mL (200 ppm), 72 hours, vs control group, read-out: Melanin production inhibition rate (%). The class given is cell-based. The method, then:
In order to examine the whitening effect of the Glycyrrhiza sp. extract, 10 g of the Glycyrrhiza sp., which was not treated, steamed at 120° C., or roasted at 200° C. and steamed at 120° C., was extracted with 200 mL of 50% butylene glycol and filtered to prepare each extract.
To culture MNT-1 melanoma cells, a mixture of DMEM (Dulbecco's Modified Eagle's Medium) and FBS (Fetal Bovine Serum) was used as a basic medium, and MNT-1 melanoma cells were dispensed in a 6-well plate at a density of 1×10^5 cells/mL to 2×10^5 cells/mL and cultured for 24 hours. Each extract was treated at a concentration of 0.1% in the cell culture solution, and then cultured for 72 hours. As a control group, 50% butylene glycol was used. Arbutin, which is a positive control, was treated at 200 μg/mL (200 ppm). […] Melanin in the precipitate was dissolved by adding 100 μL of 0.5 N sodium hydroxide solution and incubating for 12 hours, and absorbance at 450 nm was measured using an ELISA reader to measure the total amount of melanin produced. The total amount of melanin, of which production was inhibited as compared to the control group, was determined as the melanin production inhibition rate (%), and the experiment was conducted in triplicate, and then the average value was calculated (Table 5).

The next experiment relates to Raw264.7 cells. Nature of the experiment: Anti-inflammatory effect by inhibition of NO production (lipopolysaccharide-stimulated). To be noted: positive control at 100 μM, lipopolysaccharide 500 ng/mL, 18 hours, vs control group. It is filed as cell-based. As for the experimental part:
In order to examine the anti-inflammatory effect of the Glycyrrhiza sp. extract, 10 g of the Glycyrrhiza sp., which was not treated, steamed at 120° C., or roasted at 200° C. and steamed at 120° C., was extracted with 200 mL of 50% butylene glycol and filtered to prepare each extract.
To culture Raw264.7 cells, a mixture of DMEM (Dulbecco's Modified Eagle's Medium) and FBS (Fetal Bovine Serum) was used as a basic medium, and Raw264.7 cells were dispensed in a 24-well plate at a density of 1×10^5 cells/mL to 2×10^5 cells/mL and cultured for 24 hours. After removing the medium and starving with a serum-free medium for 12 hours, each extract was treated at a concentration of 1% in the cell culture solution. 30 minutes later, lipopolysaccharide was added at a concentration of 500 ng/mL, followed by culturing for 18 hours. As a control group, 50% butylene glycol was used. L-NMMA, which is a positive control, was treated at 100 μM. After culturing, the supernatant was taken and transferred to a 96-well plate, and GRIESS reagent was added and reacted at room temperature for 15 minutes. Absorbance at 540 nm was measured using an ELISA reader. The total amount of NO, of which production was inhibited as compared to the control group, was determined as the NO production inhibition rate (%), and the experiment was conducted in triplicate, and then the average value was calculated (Table 6).

`OC[C@H]1O[C@@H](Oc2ccc(O)cc2)[C@H](O)[C@@H](O)[C@@H]1O` [Arbutin]: in the experiment with MNT-1 melanoma cells, the inhibition at 200 µg/mL came to 19.7%. `CNC(=N)NCCC[C@H](N)C(=O)O` [L-NMMA]: the “NO production inhibition rate (%)” value with Raw264.7 cells is reported as 60.9%.
